{"source": "patent US7335725B2", "about": "“Lipopeptides as antibacterial agents” (priority 1999, dated 2008)", "key": {"[1]": {"test_system": "S. aureus", "assay": "MIC by NCCLS broth microdilution, S. aureus", "format": "cell-based", "settings": "Mueller-Hinton Broth with 50 mg/L Ca2+, 37° C.", "procedure": "(§1) Compounds were dissolved in 100% dimethyl sulfoxide and were diluted to the final reaction concentration (0.1 μg/mL-100 μg/mL) in microbial growth media. In all cases the final concentration of dimethyl sulfoxide incubated with cells is less than or equal to 1%. […] The optical densities (OD) of the bacterial cells, which measures bacterial cell growth and proliferation, were measured using a commercial plate reader. The MIC value is defined as the lowest compound concentration inhibiting growth of the test organism."}, "[2]": {"test_system": "E. faecalis", "assay": "MIC by NCCLS broth microdilution, E. faecalis", "format": "cell-based", "settings": "Mueller-Hinton Broth with 50 mg/L Ca2+, 37° C.", "procedure": "as §1"}}, "data": [{"substance": "Boc-protected daptomycin α,β-tridecenoyl amide [Compound 110]", "values": [{"measurement": "MIC (μg/ml) S. aureus", "setting": "[1]", "result": "+++ (the compound has an MIC (μg/ml) of 1 μg/ml or less)"}, {"measurement": "MIC (μg/ml) E. faecalis", "setting": "[2]", "result": "++ (an MIC (μg/ml) or an ED50 (mg/kg) of more than 1 μg/ml or 1 mg/kg, respectively, but less than or equal to 10 μg/ml or 10 mg/kg, respectively)"}]}]}
